Earlier results, collected in publication PMC7330163 (Pharmacology Research & Perspectives, 2020).

Key:
CYP3A4 = conditions: man; cited from earlier work
[1] = tested on: hepatic OATP transporters; conditions: accumulates in the liver; cited from earlier work

Which “CYP3A4 induction in clinical use” value (CYP3A4) does the source give for `COc1ccccc1Oc1c(NS(=O)(=O)c2ccc(C(C)(C)C)cc2)nc(-c2ncccn2)nc1OCCO` [bosentan] here?
Its value is “moderate CYP3A4 inducer”.

And the “substrate of OATP” value [1]?
Its value is “is an OATP substrate”.
